# Values of other authors as cited in patent publication US20120251478A1, “Method for treatment of a glomerular disease comprising administration of anion exchange resin” (priority 2006, published 2012).
# System: apparent albuminuria
# Conditions: reports, nonpatent reference 2
smiles,measurement,value
COc1ccc(Cl)cc1C(=O)NCCc1ccc(S(=O)(=O)NC(=O)NC2CCCCC2)cc1 [glibenclamide],apparent albuminuria,not ameliorated
